Assay results published in publication PMC11998009, “Identification of a New FtsZ Inhibitor by Virtual Screening, Mechanistic Insights, and Structure–Activity Relationship Analyses” (ACS Infectious Diseases, 2025).
Values after ≈ are worked out from the molar mass of the structure shown. Where two headings read alike, the source gives them in different places.

Key:
FtsZSa [1] = target: T1, FtsZSa (Staphylococcus aureus, UniProt P0A031); experiment: FtsZSa polymerization, 90° light scattering
T1 sequence (P0A031 1-390): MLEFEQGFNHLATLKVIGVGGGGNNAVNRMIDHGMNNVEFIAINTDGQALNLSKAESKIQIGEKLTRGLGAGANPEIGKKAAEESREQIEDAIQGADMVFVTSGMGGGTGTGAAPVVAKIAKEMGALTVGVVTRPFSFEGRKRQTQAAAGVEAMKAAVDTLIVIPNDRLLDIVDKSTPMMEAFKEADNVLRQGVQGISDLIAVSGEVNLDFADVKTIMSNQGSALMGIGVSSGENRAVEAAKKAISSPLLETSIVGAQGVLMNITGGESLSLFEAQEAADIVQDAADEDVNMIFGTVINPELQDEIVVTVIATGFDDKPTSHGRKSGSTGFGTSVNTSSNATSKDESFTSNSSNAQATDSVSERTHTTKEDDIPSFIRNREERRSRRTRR

mammalian tubulin = experiment: Tubulin polymerization assay, fluorescence based; assay type: biochemical; conditions: for Vmax of tubulin polymerization: DMSO control 3.78
A. baumannii ATCC19606 = experiment: MIC / checkerboard with PaβN; assay type: cell-based
FtsZSa [2] = target: T1, FtsZSa; experiment: FtsZSa polymerization, sedimentation assay; conditions: sedimentation assay, 100 μM
S. aureus ATCC25923 [3] = experiment: Galleria mellonella infection model
K. pneumoniae ATCC13883 = experiment: MIC / checkerboard with PaβN; assay type: cell-based
S. aureus ATCC25923 [4] = experiment: MIC determination by 2-fold microdilution, resazurin method; assay type: cell-based, Staphylococcus aureus; conditions: S. aureus ATCC25923, single drug
[5] = target: T2, S. aureus FtsZ protein (FtsZSa) (Staphylococcus aureus, UniProt P0A031); experiment: In vitro FtsZ GTPase activity (PK/LDH coupled assay); assay type: biochemical; set-up: Residual GTPase activity: concentration or dose not given beside the values
T2 construct: made in house; host or cells: Escherichia coli BL21DE3
T2 sequence (P0A031 1-390): T1 sequence (P0A031 1-390)
Procedure: In vitro FtsZ GTPase activity
FtsZSa and FtsZPa were expressed and purified as previously described.13,14 GTPase activity was assayed at 30°C using a pyruvate kinase–L-lactic dehydrogenase (PK/LDH) spectrophotometric coupled assay, as previously described15 with minor modification. The reaction mixture was first set up to contain 50 mM MES […]
phosphoenolpyruvate, and 4.8 μM of FtsZ. The assay was initiated by the addition of 1 mM GTP. The experiments were performed in triplicate. The inhibitory concentration that reduced the enzymatic activity by half (IC50) was determined using Prism 10. […]

## COc1ccc(Cc2nnc(SC3=CS(=O)(=O)c4ccccc43)o2)cc1 [C11]
FtsZSa [1]
  IC50: 48 µM
Mammalian tubulin; 5 μM
  Vmax of tubulin polymerization: 3.5 mOD/min
Mammalian tubulin; 10 μM
  Vmax of tubulin polymerization: 3 mOD/min
Mammalian tubulin; 25 μM (9.6 μg/mL), highest tested concentration
  Decrease of tubulin polymerization: 20%
Mammalian tubulin; 25 μM
  Vmax of tubulin polymerization: 2.8 mOD/min
A. baumannii ATCC19606; A. baumannii ATCC19606, C11 alone
  MIC: ≥ 128 µg/mL
A. baumannii ATCC19606; Acinetobacter baumannii, ATCC19606, A. baumannii ATCC19606, + PaβN 64 µg/ml, read-out: MIC
  MIC: 1 µg/mL
A. baumannii ATCC19606; Acinetobacter baumannii, ATCC19606, A. baumannii ATCC19606, C11 alone, read-out: MIC
  MIC: ≥ 128 µg/mL
FtsZSa [2]
  Effect on FtsZSa polymers formation: inhibitory effect on FtsZSa polymerization
S. aureus ATCC25923 [3]; 40 mg/kg 2 h after infection, 2 days postinfection, DMSO group 46%
  Survival rate of infected larvae: 77%
S. aureus ATCC25923 [3]; 40 mg/kg, after 6 days
  Survival rate of infected larvae: significantly higher than the mock-treated group
S. aureus ATCC25923 [3]; 40 mg/kg, three days postinfection, DMSO group 32%
  Survival rate of infected larvae: 58%
K. pneumoniae ATCC13883; K. pneumoniae ATCC13883, C11 alone
  MIC: ≥ 128 µg/mL
K. pneumoniae ATCC13883; Klebsiella pneumoniae, ATCC13883, K. pneumoniae ATCC13883, + PaβN […], read-out: MIC
  MIC: 8 µg/mL
K. pneumoniae ATCC13883; Klebsiella pneumoniae, ATCC13883, K. pneumoniae ATCC13883, C11 alone, read-out: MIC
  MIC: ≥ 128 µg/mL
S. aureus ATCC25923 [4]
  MIC S. aureus: 2 µg/mL (≈ 5.18 µM)
S. aureus ATCC25923 [4]; Staphylococcus aureus
  MIC: 2 µg/mL (≈ 5.18 µM)
[5]
  Effect on FtsZSa GTPase activity: did not affect the FtsZSa GTPase activity
[5]; S. aureus FtsZ protein
  Residual GTPase activity: 82.2%
